Experimental findings from ChEMBL document CHEMBL1134742, “Synthesis and structure-activity relationships of thiotetronic acid analogues of thiolactomycin” (2001) are described below.

Assay [1] has as its system Staphylococcus aureus. The assay is described as follows: Antibacterial activity against Staphylococcus aureus. The format is functional.
In assay [2] the test system is Pasteurella multocida. The assay is described as follows: Antibacterial activity against Pasteurella multocida. The format is functional.

What is called MIC is the least concentration at which growth counts as inhibited. Read a high MIC as a need for much substance.

In brackets after ≈: the same amount, converted by molar mass.

With `CC(=O)C1=C(O)S/C(=C\c2ccc(O)cc2)C1=O`, the MIC in assay [1] and in assay [2] was more than 200 µg/mL each time.
`CC(=O)C1=C(O)SC(C/C=C(\C)CC/C=C(\C)CCC=C(C)C)C1=O` (stereo not given): the MIC came to 1.56 µg/mL (≈ 4.3 µM) in assay [1] and 0.2 µg/mL (≈ 0.552 µM) in assay [2].
Taken in the same sequence, the figures for `CC(=O)C1=C(O)S/C(=C\c2cccc(Oc3ccc(Cl)c(Cl)c3)c2)C1=O` were 1.56 µg/mL (≈ 3.83 µM) and 0.2 µg/mL (≈ 0.491 µM).
Taken in the same sequence, the figures for `CCOC(=O)/C=C/C=C/C(C)=C/[C@@]1(C)SC(O)=C(C)C1=O` were more than 100 µg/mL and more than 100 µg/mL.
As for `CC(=O)C1=C(O)S/C(=C\c2ccc(F)cc2)C1=O`, the MIC in assay [1] is more than 200 µg/mL; in assay [2], 3.13 µg/mL (≈ 11.8 µM).
Regarding `CC(=O)C1=C(O)SC(COC(=O)Cc2ccccc2)C1=O` (stereo not given), the minimal inhibitory concentration (MIC) in assay [1] was 3.13 µg/mL (≈ 10.2 µM); in assay [2], more than 200 µg/mL.
Turning to `CC(=O)C1=C(O)SC(CCC(C)CCCC(C)C)C1=O` (stereo not given), the results for the minimal inhibitory concentration (MIC) in assay [1] and in assay [2] were 0.78 µg/mL (≈ 2.61 µM) and 3.13 µg/mL (≈ 10.5 µM), respectively.
Taken in the same sequence, the figures for `CC1=C(O)S[C@](C)(/C=C(C)/C=C/C#N)C1=O` were more than 100 µg/mL and more than 100 µg/mL.
Taken in the same sequence, the figures for `CC(=O)C1=C(O)SC(C)(C/C=C(\C)CC/C=C(\C)CCC=C(C)C)C1=O` (stereo not given) were more than 200 µg/mL and 1.56 µg/mL (≈ 4.14 µM).
In the case of `CCOC(=O)/C=C/C(C)=C/[C@@]1(C)SC(O)=C(C)C1=O`, the MIC in assay [1] and in assay [2] was more than 100 µg/mL throughout.
`CCCCCC(=O)/C=C/C(C)=C/[C@@]1(C)SC(O)=C(C)C1=O`: the minimum inhibitory concentration (MIC) in assay [1] and in assay [2] was more than 100 µg/mL throughout.
As to `CC1=C(O)S[C@](C)(/C=C(\C)CO)C1=O`, the MIC in assay [1] and in assay [2] was more than 100 µg/mL each time.
With `CC(=O)C1=C(O)SC(C)C1=O` (stereo not given), the MIC in assay [1] stood at 50 µg/mL (≈ 290 µM); in assay [2] it was 6.25 µg/mL (≈ 36.3 µM).
Taken in the same sequence, the figures for `CC(=O)C1=C(O)SC(C/C=C(/C)CC/C=C(\C)CCC=C(C)C)(C/C=C(/C)CC/C=C(\C)CCC=C(C)C)C1=O` were more than 200 µg/mL and more than 200 µg/mL.
Taken in the same sequence, the figures for `CC(=O)C1=C(O)S/C(=C\c2ccc(Cl)cc2Cl)C1=O` were 3.13 µg/mL (≈ 9.93 µM) and 3.13 µg/mL (≈ 9.93 µM).
Take `CC(=O)C1=C(O)S/C(=C\c2ccccn2)C1=O`: the MIC in assay [1] was more than 200 µg/mL; in assay [2] it was 100 µg/mL (≈ 404 µM).
Regarding `CC(=O)OC1=C(C)C(=O)S[C@]1(C)/C=C(\C)C=O`, the MIC in assay [1] and in assay [2] was more than 100 µg/mL in each case.
For the molecule `CC1=C(O)S[C@](C)(/C=C(C)/C=N/OCc2ccccc2)C1=O`, the MIC in assay [1] and in assay [2] was more than 100 µg/mL throughout.
For `CC(=O)C1=C(O)SCC1=O`, the minimal inhibitory concentration (MIC) in assay [1] and in assay [2] was more than 200 µg/mL in each case.
As to `CC(=O)C1=C(O)SC(C)(C/C=C(/C)CCC=C(C)C)C1=O` (stereo not given), the MIC in assay [1] was more than 200 µg/mL; in assay [2] it was 100 µg/mL (≈ 324 µM).
Taken in the same sequence, the figures for `CC1=C(O)S[C@](C)(/C=C(C)/C=C/c2ccccc2)C1=O` were more than 100 µg/mL and more than 100 µg/mL.
Taken in the same sequence, the figures for `CC(=O)C1=C(O)S/C(=C\c2ccc(C#N)cc2)C1=O` were 3.13 µg/mL (≈ 11.5 µM) and more than 200 µg/mL.
For the molecule `CC(=O)C1=C(O)S/C(=C\c2ccc(C(F)(F)F)cc2)C1=O`, the MIC in assay [1] and in assay [2] was 3.13 µg/mL (≈ 9.96 µM) throughout.
In the case of `CC(=O)C1=C(O)S/C(=C\c2ccc3c(c2)OCO3)C1=O`, the MIC in assay [1] and in assay [2] was more than 200 µg/mL in each case.
As to `CC(=O)/C=C/C(C)=C/[C@@]1(C)SC(O)=C(C)C1=O`, the MIC in assay [1] and in assay [2] was more than 100 µg/mL throughout.
On to `CC(=O)C1=C(O)S/C(=C\c2cccs2)C1=O`, for which the MIC was more than 200 µg/mL in assay [1] and 1.56 µg/mL (≈ 6.18 µM) in assay [2].
Taken in the same sequence, the figures for `CC(=O)C1=C(O)C(C)(C/C=C/c2ccccc2)SC1=O` (stereo not given) were 3.13 µg/mL (≈ 10.9 µM) and more than 200 µg/mL.
Taken in the same sequence, the figures for `C=C/C(C)=C\[C@@]1(C)SC(O)=C(C)C1=O` were more than 100 µg/mL and 0.2 µg/mL (≈ 0.951 µM).
Turning to `CC(=O)C1=C(O)S/C(=C\N(C)C)C1=O`, the MIC in assay [1] and in assay [2] was more than 200 µg/mL throughout.
As to `CCCNC/C(C)=C/[C@@]1(C)SC(O)=C(C)C1=O`, the MIC in assay [1] and in assay [2] was more than 100 µg/mL each time.
For the molecule `CC(=O)C1=C(O)SC(C/C=C/c2ccccc2)C1=O` (stereo not given), the MIC in assay [1] and in assay [2] was 3.13 µg/mL (≈ 11.4 µM) throughout.
As to `CC(=O)C1=C(O)SC(Cc2cccc(C(F)(F)F)c2)C1=O` (stereo not given), the MIC in assay [1] and in assay [2] was 3.13 µg/mL (≈ 9.9 µM) each time.
On to `CC(=O)C1=C(O)S/C(=C\c2cccc(F)c2)C1=O`, for which the figures for the minimal inhibitory concentration (MIC) in assay [1] and in assay [2] were 50 µg/mL (≈ 189 µM) and 6.25 µg/mL (≈ 23.6 µM), respectively.
Consider `CC(=O)C1=C(O)S/C(=C\c2cccc(OCc3ccccc3)c2)C1=O`, for which the MIC in assay [1] was 3.13 µg/mL (≈ 8.88 µM); in assay [2], more than 200 µg/mL.
Taken in the same sequence, the figures for `CC1=C(O)S[C@](C)(/C=C(\C)C#N)C1=O` were more than 100 µg/mL and more than 100 µg/mL.
Taken in the same sequence, the figures for `CC(=O)C1=C(O)S/C(=C\c2cccc(Oc3cccc(C(F)(F)F)c3)c2)C1=O` were 0.78 µg/mL (≈ 1.92 µM) and 3.13 µg/mL (≈ 7.7 µM).
As to `C=C/C(C)=C/[C@@]1(C)SC(=O)C(C)=C1OC(C)=O`, the MIC in assay [1] and in assay [2] was more than 100 µg/mL throughout.
For the molecule `CC(=O)C1=C(O)S/C(=C\c2ccccc2)C1=O`, the MIC in assay [1] and in assay [2] was more than 200 µg/mL throughout.
On to `CC(=O)C1=C(O)C(C)(Cc2ccc(F)cc2)SC1=O` (stereo not given), for which the MIC in assay [1] and in assay [2] was more than 200 µg/mL in each case.
Consider `CC1=C(O)S[C@](C)(/C=C(\C)C=C(Br)Br)C1=O`, for which the MIC in assay [1] and in assay [2] was more than 100 µg/mL throughout.
